Key:
[1] = test system: participants with peripheral ongoing neuropathic pain (p-ONP) / peripheral neuropathy; experiment: Lidocaine patch cross-over trial (Example 2A): pain VAS and DLss C:Aδ ratio; type: in vivo, human; conditions: lidocaine patch (5%) or placebo patch, 7 day treatment, p<0.01
Description: 70 p-ONP participants to with mean pain VAS >40 mm who undergo baseline DLss, and pain measures. Response to VAS was compared to change in C:Aδ ratio following treatment with peripherally active lidocaine patch (5%), or placebo patch using a 7 day treatment cross-over design with 14 day washout between treatment arms.
• Diode laser for selective stimulation (DLss) testing of C:Aδ ratio. Detection and pain thresholds for fiber-selective laser stimulation was performed with Lass-10M, as previously described (patents U.S. Pat. No. 7,402,167B2 and U.S. Pat. No. 8,029,553B2). The foot dorsum was shaved to limit light absorption and overheating. Skin temperature on the dorsal foot will be monitored and maintained at 32-33° C. using periodic heating pad warming. • Laser detection and pain thresholds (separately for Aδ and C fiber stimulation) were quantified using the “method of levels” on a 6×6 cm stimulus grid drawn on the foot dorsum, shifting location and using a series of ascending stimulations starting from sub-detection intensity, increasing by fixed increments with the highest stimulation determined by participant reporting a painful sensation with intensity between 30 and 40 on the 0-100 VAS. […] Blood perfusion was recorded by Speckle Imaging (PeriCam PSI System, Perimed, Sweden), following DLss stimulus using the C fiber protocol above. […]

[2] = test system: CMi fibers (axon flare) in rhesus monkeys; experiment: DLss induced axon flare before and after intradermal lidocaine injection; type: in vivo; conditions: intradermal 2.0% lidocaine injection; four rhesus monkeys; saline subdermal injection as control
Excerpt: Lidocaine is a wide spectrum sodium channel blocker that is used clinically as a dermal patch or intradermal injection 97-99 for treatment of peripheral neuropathic pain 3, 99. […] C and Aδ fibers are differentially affected by lidocaine treatment 99-101, and suppression of repetitive CMi activation that mimics spontaneous activity is a potent consequence of lidocaine treatment 100. Flare response in rhesus monkeys, a primate animal model for human neuropathic pain generation and nociceptor dynamics was similar to that observed in healthy subjects (FIG. 2). A total of four monkeys were tested. DLss induced flare was evaluated before and after intradermal 2.0% lidocaine injection and saline subdermal injection was used as a control. […]
• Diode laser for selective stimulation (DLss) testing of C:Aδ ratio. […] Skin temperature on the dorsal foot will be monitored and maintained at 32-33° C. using periodic heating pad warming. • Laser detection and pain thresholds (separately for Aδ and C fiber stimulation) were quantified using the “method of levels” on a 6×6 cm stimulus grid drawn on the foot dorsum, shifting location and using a series of ascending stimulations starting from sub-detection intensity, increasing by fixed increments with the highest stimulation determined by participant reporting a painful sensation with intensity between 30 and 40 on the 0-100 VAS. […]

peripheral ONP = conditions: lidocaine injection; reference 12; cited from earlier work

## CCN(CC)CC(=O)Nc1c(C)cccc1C [lidocaine]
[1]
  Change in C:Aδ ratio, lidocaine versus placebo treatment groups: distinguish lidocaine from placebo treatment groups
[2]
  axon flare area after injection compared to saline: markedly reduced
Peripheral ONP
  block of peripheral ONP: completely block

From patent publication US20230034978A1, “PROCESS FOR MEASURING EFFICACY OF PAIN THERAPY” (priority 2021, published 2023)
